These results are taken from EPA's aquatic toxicity sets.

Each structure is given as a SMILES string.

This data set deals with Tetrahymena pyriformis. Description: 48 h IGC50 (-log10 mol/L); higher = more toxic.
With `Cc1cc2ccccc2n1C`, the “48 h IGC50 (-log10 mol/L)” value is 3.84.

Turning to `CCCCCN`, the “48 h IGC50 (-log10 mol/L)” value is 2.52. Take `ClC(Cl)c1ccccc1`: the “48 h IGC50 (-log10 mol/L)” value is 3.11. Turning to `Cc1ccc(Cl)c(N)c1Cl`, the “48 h IGC50 (-log10 mol/L)” value is 3.69. As for `OCc1cccc2ccccc12`, the “48 h IGC50 (-log10 mol/L)” value amounted to 3.13. Regarding `Cc1ccc([N+](=O)[O-])cc1F`, the “48 h IGC50 (-log10 mol/L)” value was found to be 3.33. For `O=[N+]([O-])c1cc(Br)ccc1Br` the value was 4.37; for `C=CCOC(=O)C=C`, 3.68; for `Cc1ccc2ccccc2c1[N+](=O)[O-]`, 4.04. For `CCOC(=O)C(Br)CC` (centres undefined) the value was 3.76; for `Cc1cccc(N)c1C`, 2.57; for `CCCC(O)Cc1ccccc1` (centres undefined), 3.16. For the molecule `CCC(C)CO` (centres undefined), the “48 h IGC50 (-log10 mol/L)” value was determined as 2.05.

Take `COc1ccccc1C=O`: the “48 h IGC50 (-log10 mol/L)” value was 3.15. For `CCOc1cccc2ccccc12` the value was 4.25.

As to `Fc1cccc2ccccc12`, the “48 h IGC50 (-log10 mol/L)” value was found to be 3.39. With `Cc1c(N)ccc(O)c1C` the figure was 4.44. As for `Cc1[nH]cnc1C=O`, the “48 h IGC50 (-log10 mol/L)” value was found to be 2.07.

On to `CCc1cc(O)ccc1Cl`, for which the “48 h IGC50 (-log10 mol/L)” value was determined as 4.08. With `Cc1ccc(N)c(Cl)c1` the figure was 3.18; with `CC(C)CCO`, 1.96.

Consider `OC(CCl)CCl`, for which the “48 h IGC50 (-log10 mol/L)” value was found to be 2.21. Regarding `C=CC(=O)OC(C)(C)C`, the “48 h IGC50 (-log10 mol/L)” value stood at 3.27.

As to `CS(C)=O`, the “48 h IGC50 (-log10 mol/L)” value is 0.548.

Take `CCCCC(O)CC` (centres undefined): the “48 h IGC50 (-log10 mol/L)” value came out at 2.51. With `CCOC(=O)C(Br)C(C)Br` (centres undefined) the figure was 4.44; with `COc1cc(C=O)cc(OC)c1O`, 3.17. With `CCC#CC(C)=O` the figure was 4.32; with `Cc1cccc(C=O)c1`, 3.08; with `CC(=O)C(C)Cl` (centres undefined), 3.27. On to `O=Cc1ccc(Cl)o1`, for which the “48 h IGC50 (-log10 mol/L)” value was 3.07. For `CCOS(=O)(=O)OCC` the value was 2.3; for `CCOC(=O)CCCCCC(=O)OCC`, 3.41; for `CCC=CCCC=CC=O`, 4.34. For `O=C(Oc1cccc(O)c1)c1ccccc1` the value was 4.11; for `Cc1cccc2ccccc12`, 3.74.

For the molecule `CCCCC#CCCO`, the “48 h IGC50 (-log10 mol/L)” value amounted to 3.02. With `CCCCCCC#CCO` the figure was 3.65; with `CC(C)COC=O`, 1.69. For `CCCCCCCCOC(C)=O` the value was 4.06. Regarding `O=[N+]([O-])c1ccc(F)c(Cl)c1`, the “48 h IGC50 (-log10 mol/L)” value came to 3.8. With `Oc1cc(Cl)c(O)cc1Cl` the figure was 4.81; with `CCCC/C=C/C=O`, 4.05; with `NC(=S)c1ccccc1`, 3.09. Turning to `N#CCCCBr`, the “48 h IGC50 (-log10 mol/L)” value stood at 2.54. For `CCC=C(C)C=O` the value was 2.98. For `COC(=O)CCCBr` the value was 3.07; for `CCCCCCCl`, 3.78.

As for `c1csc(-c2cccs2)c1`, the “48 h IGC50 (-log10 mol/L)” value was found to be 4.04.

Consider `Cc1ccc(Cl)c(O)c1`, for which the “48 h IGC50 (-log10 mol/L)” value worked out at 3.54. For `CC(C)(C)C(N)=O`, the “48 h IGC50 (-log10 mol/L)” value amounted to 1.52.

Regarding `CC(C)(C)C(=O)O`, the “48 h IGC50 (-log10 mol/L)” value amounted to 2.75. For `OCC(O)CBr` (centres undefined) the value was 1.79.

On to `CCC(C)(C)N`, for which the “48 h IGC50 (-log10 mol/L)” value worked out at 2.3. With `OC12CC3CC(CC(C3)C1)C2` the figure was 2.92; with `O=[N+]([O-])c1cc(CO)cc([N+](=O)[O-])c1`, 3.53. Turning to `O=c1ccc(Cl)c[nH]1`, the “48 h IGC50 (-log10 mol/L)” value is 2.25. With `CCCCC(Br)CBr` (centres undefined) the figure was 4.15; with `NC(CO)CO`, 1.32. With `O=Cc1cc(C(F)(F)F)cc(Cl)c1F` the figure was 4.24; with `CC(C)(C)C(=O)CCl`, 4.27; with `NNC=O`, 2.13. For `COc1cccc(C=O)c1O` the value was 3.38. Regarding `N#CCc1ccc(N)cc1`, the “48 h IGC50 (-log10 mol/L)” value came to 2.24. With `C/C=C(\C)C(=O)OC` the figure was 2.38; with `Cc1ccc(Cl)c(C=O)c1F`, 3.74. With `NNC(=O)CCCCC(=O)NN`, the “48 h IGC50 (-log10 mol/L)” value came out at 1.63. For `CC(=O)OCCCCBr`, the “48 h IGC50 (-log10 mol/L)” value came out at 3.39. In the case of `O=C(CBr)c1ccc2ccccc2c1`, the “48 h IGC50 (-log10 mol/L)” value amounted to 5.96.

As for `CCCCC(=O)OC`, the “48 h IGC50 (-log10 mol/L)” value worked out at 2.15. Regarding `CC(C)c1ccccc1N`, the “48 h IGC50 (-log10 mol/L)” value is 3.12. With `Cc1ccccc1C(=O)c1ccccc1` the figure was 4.37; with `CCCCCCCCCl`, 3.67.

As to `Nc1cc([N+](=O)[O-])cc(Cl)c1O`, the “48 h IGC50 (-log10 mol/L)” value is 4.2. For `CC(C)c1ccc(N)cc1` the value was 3.22; for `CC(C)CC(=O)OCCc1ccccc1`, 4.1; for `COCCCN`, 1.23. With `O=[N+]([O-])c1cc(F)cc(I)c1` the figure was 4.09.

For the molecule `CC(C)COC(=O)C(C)C`, the “48 h IGC50 (-log10 mol/L)” value was 2.41.

For `COc1cccc(C=O)c1`, the “48 h IGC50 (-log10 mol/L)” value stood at 3.23. With `COC(N)=O` the figure was 1.02. `O=C1CCCC(=O)C1`: the “48 h IGC50 (-log10 mol/L)” value stood at 2.07.

Take `CCc1ccc(C=O)cc1`: the “48 h IGC50 (-log10 mol/L)” value was 3.29. In the case of `CCC(=O)Cc1ccccc1`, the “48 h IGC50 (-log10 mol/L)” value worked out at 2.79. With `CC(=O)c1cc(C)ccc1O` the figure was 3.31; with `N#C/C=C/c1ccccc1`, 3.16. As to `N#Cc1cccc2ccccc12`, the “48 h IGC50 (-log10 mol/L)” value was found to be 3.69. For `CC(C)(CO)CCl` the value was 2.22. With `N#Cc1cccc(C=O)c1` the figure was 2.98.

Turning to `Oc1ccccc1Cc1ccccc1`, the “48 h IGC50 (-log10 mol/L)” value was 4.31. For `Cc1cc(Cl)ncc1[N+](=O)[O-]` the value was 3.42; for `CCC(=O)N(C)C`, 1.43; for `O=C(c1ccccc1)c1ccccc1`, 3.87. For `CCc1cccc(O)c1` the value was 3.29; for `Oc1cc(Cl)cc(Cl)c1`, 4.56; for `Fc1ccc(-c2ccccc2)cc1`, 3.53. With `N#Cc1c(O)ccc(O)c1C#N`, the “48 h IGC50 (-log10 mol/L)” value came to 2.56. As to `CCCCCCC(O)CCC` (centres undefined), the “48 h IGC50 (-log10 mol/L)” value was determined as 3.85. With `CCCCCOc1ccc(O)cc1` the figure was 4.36; with `CCC[C@H](O)c1ccccc1`, 2.91. For `COC(=O)c1cc(O)cc(O)c1` the value was 2.86. With `Cc1ccc(C=O)c2ccccc12` the figure was 4.12; with `O=C1CCO1`, 2.88; with `CCCOC(=O)c1ccccc1`, 3.42. Take `C#CCSc1ccccc1`: the “48 h IGC50 (-log10 mol/L)” value stood at 3.54.

`CCCCOc1ccc(C=O)cc1`: the “48 h IGC50 (-log10 mol/L)” value amounted to 3.72. Take `CCC/C=C/C(C)=O`: the “48 h IGC50 (-log10 mol/L)” value came out at 3.7. With `Cc1cc(N)c([N+](=O)[O-])cc1C` the figure was 3.45. Take `OCC#Cc1ccccc1`: the “48 h IGC50 (-log10 mol/L)” value was determined as 3.07. For the molecule `NC(=O)c1ccccc1[N+](=O)[O-]`, the “48 h IGC50 (-log10 mol/L)” value was 2.28. With `CCCCCCCCCCCN` the figure was 5.33. With `c1ccc(Cc2ccccn2)cc1` the figure was 3.38; with `O=C1C=CC(=O)c2ccccc21`, 5. On to `c1ccc(Cc2cccnc2)cc1`, for which the “48 h IGC50 (-log10 mol/L)” value is 3.68. With `CCC(C)(C)O` the figure was 1.83. As to `CCCCCCOC(C)=O`, the “48 h IGC50 (-log10 mol/L)” value worked out at 2.99. For `CC(=O)c1ccc(O)cc1O` the value was 3.25. Regarding `CCCCC1CCC(=O)O1` (centres undefined), the “48 h IGC50 (-log10 mol/L)” value is 2.62. On to `O=C(O)c1c(Cl)cccc1Cl`, for which the “48 h IGC50 (-log10 mol/L)” value was 2.33.

Take `C=C(C)C(=O)OCCC`: the “48 h IGC50 (-log10 mol/L)” value is 2.35.

Take `N#CCCCCl`: the “48 h IGC50 (-log10 mol/L)” value is 2.07. Take `CCCCCCOC=O`: the “48 h IGC50 (-log10 mol/L)” value amounted to 2.62. With `CCCCC/C=C/CCC=O` the figure was 4.21; with `CC(C)CCOC(=O)c1ccc(O)cc1`, 4.48; with `COc1ccc([N+](=O)[O-])cn1`, 2.99. For `Brc1ccsc1`, the “48 h IGC50 (-log10 mol/L)” value amounted to 2.96. As to `O=C(O)c1cc(Cl)ccc1O`, the “48 h IGC50 (-log10 mol/L)” value is 2.6. For `CC(=O)c1ccc[nH]1` the value was 2.09; for `N#Cc1cccc(Cl)c1`, 2.94. For `CCC(C)CC(=O)O` (centres undefined), the “48 h IGC50 (-log10 mol/L)” value came to 2.77. For `CN(C)Cc1cc(CN(C)C)c(O)c(CN(C)C)c1` the value was 2.48. For `Cc1ccc2ccccc2c1C=O`, the “48 h IGC50 (-log10 mol/L)” value worked out at 4.23. Consider `CC(C)(C)c1ccc(CO)cc1`, for which the “48 h IGC50 (-log10 mol/L)” value was 3.48. For `CCCCCCCCC(C)O` (centres undefined) the value was 3.99; for `CC(Br)c1ccccc1` (centres undefined), 2.33. With `CC(=O)OC/C=C/c1ccccc1` the figure was 3.59. With `CC1CCOC1=O` (centres undefined) the figure was 1.81. As to `c1ccnnc1`, the “48 h IGC50 (-log10 mol/L)” value came out at 1.59.

On to `CCCC/C=C/C(C)=O`, for which the “48 h IGC50 (-log10 mol/L)” value is 3.74.
